# Assay results reported in patent publication US7163799B2, “Neuromedin U receptor NMUR2 and nucleotides encoding it” (Merck & Co., Inc., priority 2000, dated 2007).
# Where no end group is shown, it is not given here.
# Legend:
# Format in all cases: in vivo, rat
# rats [1] = assay: Sodium (salt) appetite aversion assay in rats; conditions: sodium-depleted rats
# Protocol: In the salt appetite assay, rats were given 0.5 M NaCl salt water to drink for three days along with food and regular water. After three days, two injections of furosemide (5 mg /0.2 ml, s.c.) were given at one hour apart to sodium-deplete the rats. Rats were then returned to salt-free water and given a sodium-deficient diet. Rats actively seek to defend their internal sodium levels. Consequently, when sodium is depleted, they will avidly drink salt solutions unless ill or nauseous. Twenty-four hours following furosemide administration, rats were given NMU (0, 3, or 10 μg, ICV), or LiCl (0.15 M, 2 ml/kg, i.p.) and given water and 0.5 M NaCl to drink. Fluid consumption was measured 1, 2, and 24 hours post dosing.
# rats [2] = assay: Conditioned taste aversion (CTA) assay in rats; conditions: for saccharin intake relative to total intake (taste aversion): 24 hours post-dosing
# Protocol: In the CTA study, rats were conditioned to two hour daily access to water, with access to water from two bottles for two hours each day for three days. On the fourth day, rats were given 0.15% saccharin for the two hour period instead of water and saccharin consumption measured. Rats were injected NMU-23 (0, 3, or 10 μg, ICV). LiCl was used as a positive control (0.15 M; 2 ml/kg, i.p.). On the fifth day, rats were given saccharin alone for the first hour, then water was added for the remaining 23 hours. Fluid consumption was measured at 1, 2, and 24 hours post injection. Aversion was assessed as a function of drinking preferences.
# rats [3] = assay: Food intake and feeding duration in rats after ICV administration; conditions: for overnight food intake, change expressed as percentage of control group: n=12 per group
# Protocol: Male rats (Charles River Sprague Dawley) weighing 250–350 g were maintained in a temperature and humidity controlled facility with a 12 hour light/dark cycle (4:00 AM lights on). Rats were individually housed in custom designed shoebox cages on wire floors and fed ad libitum with fresh diet provided daily. […] Attached to the food drawers was an infrared feeding monitor that projects a beam across the drawer above the food (MiniMitter, Inc., Sun River, Oreg.). When the animal broke the infrared beam it caused a switch closure. An oscillator then sent off pulses (one pulse/second) and the total number of pulses indicated the length of time that the beam was broken which corresponds to the length of time spent feeding (recorded as feeding duration).
# Cannulation and ICV administration were performed essentially as described in Murphy et al 1998 Neuropeptides 32:491–497, which is hereby incorporated by reference. After cannulation, rats were allowed to recover a minimum of seven days before injection with test compounds. All test substances were dissolved in artificial cerebral spinal fluid (aCSF). Rats were injected ICV with 1, 3, or 10 μg of rat NMU-23 (Phoenix Pharmaceuticals). Additional rats were injected ICV with either 0.3 or 0.03 μg of MT-II (Peninsula Laboratories) as a positive control for food intake suppression (melanocortin receptor agonist). […] Another group of ICV-cannulated rats were used in conditioned taste aversion (CTA) and sodium appetite (SA) aversion assays.
compound,measurement,setting,value
[Cl-].[Li+] [LiCl],salt intake (sodium appetite),"rats [1]; 0.15 M, 2 ml/kg i.p.",significantly decreased salt intake
same,saccharin intake (taste aversion),"rats [2]; 0.15 M, 2 ml/kg i.p., emetic control",decreased saccharin intake
MT-II,overnight food intake,"rats [3]; 0.3 μg ICV, positive control",significantly decreased
same,"cumulative feeding duration, change","rats [3]; ICV, positive control",−71%
YKVNEYQGPVAPSGGFFLFRPRN-NH2 [NMU],"cumulative feeding duration, change",rats [3]; 3 μg ICV,−33%
same,"overnight food intake, change expressed as percentage of control group",rats [3]; 3 μg ICV,−38±6%
same,"cumulative feeding duration, change",rats [3]; 10 μg ICV,−39%
same,"overnight food intake, change expressed as percentage of control group",rats [3]; 10 μg ICV,−32±3%
same,total amount of salt intake (sodium appetite),rats [1]; 3 μg ICV,did not significantly change
same,total amount of salt intake (sodium appetite),rats [1]; 10 μg ICV,did not significantly change
same,saccharin intake relative to total intake (taste aversion),rats [2]; 3 μg ICV,did not decrease saccharin intake
same,saccharin intake relative to total intake (taste aversion),rats [2]; 10 μg ICV,did not decrease saccharin intake
